We go through 25 compounds from PubChem BioAssay AID330 (DTP/NCI, 2004).

Several values for one entry are separate records, joined by “and”; a condition that tells them apart may be missing. Equal values may be shown once. Toxic doses and inconclusive results are not listed.

In this experiment the test system is P388 leukemia ip, CD2F1 mice, survival T/C. Put plainly: NCI In Vivo Anticancer Drug Screen. Data for tumor model P388 Leukemia (intraperitoneal) in CD2F1 (CDF1) mice. Conditions: endpoint: median survival time, higher = longer survival. A digest of the protocol: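 Mice carrying the transplanted tumor received test compound or vehicle. Survival was recorded in each group, and the value is the treated-group measurement divided by that of the vehicle-treated control group.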

The mark [1] stands for this setting: dose: 50.0 mg/kg/injection, schedule: Q01DX009 (ip), vehicle: Klucel (hydroxypropylcellulose) (HPC).
The mark [2] stands for this setting: dose: 100.0 mg/kg/injection, schedule: Q01DX009 (ip), vehicle: Klucel (hydroxypropylcellulose) (HPC).
Where [3] appears, read: dose: 200.0 mg/kg/injection, schedule: Q01DX009 (ip), vehicle: Klucel (hydroxypropylcellulose) (HPC).
Setting [4] is: dose: 60.0 mg/kg/injection, schedule: Q01DX005 (ip), vehicle: saline with Tween-80.
Setting [5] is: dose: 120.0 mg/kg/injection, schedule: Q01DX005 (ip), vehicle: saline with Tween-80.
The mark [6] stands for this setting: dose: 240.0 mg/kg/injection, schedule: Q01DX005 (ip), vehicle: saline with Tween-80.
[7] abbreviates: dose: 400.0 mg/kg/injection, schedule: Q01DX009 (ip), vehicle: Klucel (hydroxypropylcellulose) (HPC).
[8] abbreviates: dose: 50.0 mg/kg/injection, schedule: Q01DX009 (ip), vehicle: saline with Tween-80.
Where [9] appears, read: dose: 100.0 mg/kg/injection, schedule: Q01DX009 (ip), vehicle: saline with Tween-80.
Where [10] appears, read: dose: 200.0 mg/kg/injection, schedule: Q01DX009 (ip), vehicle: saline with Tween-80.
The mark [11] stands for this setting: dose: 12.5 mg/kg/injection, schedule: Q01DX005 (ip), vehicle: saline with Tween-80.
The mark [12] stands for this setting: dose: 25.0 mg/kg/injection, schedule: Q01DX005 (ip), vehicle: saline with Tween-80.
Where [13] appears, read: dose: 25.0 mg/kg/injection, schedule: Q01DX009 (ip), vehicle: saline with Tween-80.
Setting [14] is: dose: 12.5 mg/kg/injection, schedule: Q01DX009 (ip), vehicle: saline with Tween-80.

For `CCCCCCCC/C=C\CCCCCCCCOC(N)=O`, the T/C is, setting by setting: (dose: 25.0 mg/kg/injection, schedule: Q04DX003 (ip), vehicle: other) 100 % of control; (dose: 50.0 mg/kg/injection, schedule: Q04DX003 (ip), vehicle: other) 104 % of control; (dose: 100.0 mg/kg/injection, schedule: Q04DX003 (ip), vehicle: other) 104 % of control.

As for `COc1ccc(C2C(C#N)=C(N)Oc3c2c(C)nn3-c2ccccc2)cc1` (stereo not given), the T/C is 89 % of control and 92 % of control under setting [1]; 99 % of control and 96 % of control under setting [2]; 90 % of control and 97 % of control under setting [3].

Regarding `O=S(=O)(O)O.[NH-]CC[NH-].[Pt+2]`, the T/C is 168 % of control (dose: 6.25 mg/kg/injection, schedule: Q04DX002 (ip), vehicle: saline) and 97 % of control (dose: 12.5 mg/kg/injection, schedule: Q04DX002 (ip), vehicle: saline).

In the case of `O=C1CC2(CCc3ccccc32)C(=O)N1CN1CCN(CCO)CC1` (stereo not given), the T/C (dose: 50.0 mg/kg/injection, schedule: Q01DX005 (ip), vehicle: saline) was 106 % of control; the T/C (dose: 100.0 mg/kg/injection, schedule: Q01DX005 (ip), vehicle: saline) is 110 % of control; the T/C (dose: 200.0 mg/kg/injection, schedule: Q01DX005 (ip), vehicle: saline) was 115 % of control.

As to `Oc1c(CNCc2ccc(Cl)c(Cl)c2)ccc2cccnc12`, the T/C is 104 % of control (dose: 100.0 mg/kg/injection, schedule: Q04DX003 (ip), vehicle: Klucel (hydroxypropylcellulose) (HPC)); 105 % of control (dose: 200.0 mg/kg/injection, schedule: Q04DX003 (ip), vehicle: Klucel (hydroxypropylcellulose) (HPC)); 106 % of control (dose: 400.0 mg/kg/injection, schedule: Q04DX003 (ip), vehicle: Klucel (hydroxypropylcellulose) (HPC)).

For the compound `CC(=O)CC(=O)CCC(=O)Nc1cccc([N+](=O)[O-])c1`, the T/C is, setting by setting: under setting [4], 106 % of control; under setting [5], 100 % of control; under setting [6], 105 % of control.

`CCC(=N/NC(=S)NCCN1CCCCC1)/C(CC)=N\NC(=S)NCCN1CCCCC1`: the T/C was 100 % of control (dose: 3.13 mg/kg/injection, schedule: Q01DX009 (ip), vehicle: saline with Tween-80) and 103 % of control (dose: 6.25 mg/kg/injection, schedule: Q01DX009 (ip), vehicle: saline with Tween-80).

With `O=C1CSC(=S)N1c1cccc(Cl)c1`, the T/C under setting [1] was 107 % of control and 122 % of control; the T/C under setting [2] was 118 % of control and 121 % of control; the T/C under setting [3] is 111 % of control; the T/C under setting [7] is 100 % of control.

`CCOC(=O)c1c(Cl)c(-c2ccccc2)c(=O)n2c1[nH]c1ccccc12`: the T/C is 100 % of control (dose: 100.0 mg/kg/injection, schedule: Q01DX001 (ip), vehicle: saline with Tween-80); 101 % of control (dose: 200.0 mg/kg/injection, schedule: Q01DX001 (ip), vehicle: saline with Tween-80); 102 % of control (dose: 400.0 mg/kg/injection, schedule: Q01DX001 (ip), vehicle: saline with Tween-80).

Consider `CC(=O)Nc1ccc(NC(=S)NC(=O)c2ccccc2)cc1`, for which the T/C is, setting by setting: under setting [8], 107 % of control; under setting [9], 100 % of control; under setting [10], 95 % of control.

Regarding `CCOC(=O)C1=NN2c3ccccc3OCC2C1` (stereo not given), the T/C is, setting by setting: (dose: 50.0 mg/kg/injection, schedule: Q04DX003 (ip), vehicle: suspension in saline) 99 % of control; (dose: 100.0 mg/kg/injection, schedule: Q04DX003 (ip), vehicle: suspension in saline) 101 % of control; (dose: 200.0 mg/kg/injection, schedule: Q04DX003 (ip), vehicle: suspension in saline) 100 % of control.

On to `CC(=O)Oc1c(I)cc(Cc2nc(C)oc2C)cc1I`, for which the T/C (dose: 100.0 mg/kg/injection, schedule: Q01DX001 (ip), vehicle: saline) was 99 % of control; the T/C (dose: 200.0 mg/kg/injection, schedule: Q01DX001 (ip), vehicle: saline) is 102 % of control; the T/C (dose: 400.0 mg/kg/injection, schedule: Q01DX001 (ip), vehicle: saline) is 102 % of control.

Turning to `CCN(CC)C(=S)n1nc(C)c(N=Nc2cccc(Cl)c2Cl)c1C`, the T/C by setting is: (dose: 6.25 mg/kg/injection, schedule: Q01DX005 (ip), vehicle: saline with Tween-80) 103 % of control; under setting [11], 97 % of control; under setting [12], 93 % of control; (dose: 100.0 mg/kg/injection, schedule: Q01DX005 (ip), vehicle: saline with Tween-80) 91 % of control; (dose: 200.0 mg/kg/injection, schedule: Q01DX005 (ip), vehicle: saline with Tween-80) 94 % of control.

Take `OCCN1CCN(C2=Nc3cccnc3Nc3cscc32)CC1`: the T/C is 101 % of control under setting [4], 111 % of control under setting [5] and 96 % of control under setting [6].

Regarding `C=C1C(=O)OC2CC(C)(O)C(O)CC3OC3(C)CC(OC(=O)/C(C)=C/C)C12` (stereo not given), the T/C by setting is: (dose: 1.25 mg/kg/injection, schedule: Q01DX005 (ip), vehicle: Klucel (hydroxypropylcellulose) (HPC)) 99 % of control; (dose: 2.5 mg/kg/injection, schedule: Q01DX005 (ip), vehicle: Klucel (hydroxypropylcellulose) (HPC)) 101 % of control; (dose: 5.0 mg/kg/injection, schedule: Q01DX005 (ip), vehicle: Klucel (hydroxypropylcellulose) (HPC)) 108 % of control; (dose: 10.0 mg/kg/injection, schedule: Q01DX005 (ip), vehicle: Klucel (hydroxypropylcellulose) (HPC)) 110 % of control.

Turning to `COc1ccc2c(c1)C(=O)/C(=N\O)C2`, the T/C by setting is: (dose: 50.0 mg/kg/injection, schedule: Q01DX005 (ip), vehicle: Klucel (hydroxypropylcellulose) (HPC)) 92 % of control; (dose: 100.0 mg/kg/injection, schedule: Q01DX005 (ip), vehicle: Klucel (hydroxypropylcellulose) (HPC)) 101 % of control; (dose: 200.0 mg/kg/injection, schedule: Q01DX005 (ip), vehicle: Klucel (hydroxypropylcellulose) (HPC)) 92 % of control.

Take `CCCCCCCCCCOC(=O)c1ccc(O)cc1`: the T/C was 97 % of control under setting [8], 102 % of control under setting [9] and 97 % of control under setting [10].

For the compound `NCCCN1c2ccccc2Sc2ccc(Cl)cc21`, the T/C was 99 % of control and 90 % of control under setting [13]; 113 % of control and 120 % of control under setting [8].

Regarding `CCN(CC)CCCC(CO)Nc1ccnc2cc(Cl)ccc12` (stereo not given), the T/C is 104 % of control and 100 % of control under setting [1]; 96 % of control and 98 % of control under setting [2].

Take `N#CCc1ccccc1C#N`: the T/C under setting [11] was 100 % of control; the T/C under setting [12] was 99 % of control; the T/C (dose: 50.0 mg/kg/injection, schedule: Q01DX005 (ip), vehicle: saline with Tween-80) was 101 % of control.

Take `Cc1ccc(OP(=O)(Oc2ccc(C)cc2)Oc2ccc(C)cc2)cc1.Cc1ccc(OP(=O)(Oc2ccc(C)cc2)Oc2ccc(C)cc2)cc1.[Cl][Cu][Cl]`: the T/C is 99 % of control (dose: 12.5 mg/kg/injection, schedule: Q04DX003 (ip), vehicle: Klucel (hydroxypropylcellulose) (HPC)); 96 % of control (dose: 25.0 mg/kg/injection, schedule: Q04DX003 (ip), vehicle: Klucel (hydroxypropylcellulose) (HPC)); 99 % of control (dose: 50.0 mg/kg/injection, schedule: Q04DX003 (ip), vehicle: Klucel (hydroxypropylcellulose) (HPC)).

As to `Cc1ccc(NCC2(/N=C/c3ccccc3)OC(CO)C(O)C2O)cc1` (stereo not given), the T/C (dose: 266.0 mg/kg/injection, schedule: Q01DX009 (ip), vehicle: Klucel (hydroxypropylcellulose) (HPC)) was 150 % of control and 157 % of control; the T/C under setting [7] is 170 % of control and 176 % of control.

As to `c1cc2sc3ccc(OCCCN4CCCCC4)cc3c2cc1OCCCN1CCCCC1`, the T/C is 104 % of control under setting [14], 115 % of control under setting [13] and 91 % of control under setting [8].

Consider `Cc1cc(C(=O)N/N=C/c2ccccc2O)c2cc(Br)ccc2n1`, for which the T/C is 88 % of control under setting [14], 92 % of control under setting [13], 98 % of control under setting [9] and 97 % of control under setting [10].

As to `O=C(CN1CCC(O)(c2ccccc2)CC1)N1CCN(/C=C/c2ccccc2)CC1`, the T/C reads like this: under setting [4], 100 % of control; under setting [5], 104 % of control; under setting [6], 91 % of control.
